Measured values from US20230172897A1, “METHODS OF TREATING BREAST CANCERS WITH SELECTIVE ANDROGEN RECEPTOR MODULATORS AND ADDITIONAL THERAPEUTIC AGENTS” (VERU, INC., priority 2021, published 2023).
“And” between values parts separate entries of the source, which are not always exact repeats. Equal entries are not always repeated.

Tests used:
[1] = tested on: ER-positive metastatic breast cancer; assay: Phase 2 clinical trial (G200801), 9 mg daily; assay type: in vivo, women
Experimental: The goal of this study was to determine the importance of the AR status as a therapeutic target in women with ER-positive metastatic breast cancer (MBC) that had previously responded to hormone therapy. The treatment was continued until disease progression (PD).
CBR will be correlated with AR status of metastatic tumor biopsy.
Serum prostate specific antigen (PSA) was evaluated as a biomarker of AR activity.
Female subjects with ER-positive metastatic breast cancer who have previously been treated with up to 3 prior hormonal therapies for the treatment of breast cancer. Subjects must have been treated with and responded to previous adjuvant therapy for ≥3 years or hormonal therapy for metastatic disease for >6 months prior to progression. Details of subject selection criteria are presented below:
Measurable and non-measurable lesions (primary and/or metastatic) were identified and assessed by a modified Response Evaluation Criteria In Solid Tumors (RECIST 1.1) classification over the course of this study (described in detail below).
The primary efficacy analysis was the clinical benefit in subjects with AR-positive breast cancer at 6 months as measured by a modified Response Evaluation Criteria In Solid Tumors (RECIST 1.1) classification. Key secondary endpoints of clinical benefit in all subjects and AR-negative subjects, as well as objective response rate, progression free survival, time to progression, duration of response, incidence of SREs, and time to first SRE in subsets based on AR status (i.e., all subjects, AR-positive subjects, and AR-negative subjects) was also assessed. Effects on CA 27-29, PSA, bone turnover markers, QOL, and libido were assessed as tertiary endpoints.
Clinical benefit in a subject is defined as a complete response [CR], a partial response [PR] or stable disease [SD] as measured by modified RECIST 1.1, which is described in detail below. (Eisenhauer E A et al. New response evaluation criteria in solid tumors: revised RECIST guideline (version 1.1). European Journal of Cancer 45:228-247, 2009).

[2] = Phase 3 trials, muscle wasting in non-small cell lung cancer; assay type: in vivo, human; conditions: 3 mg daily
From the text: These include: 1. Protocol G100401, a Phase 1 single ascending dose study in 96 healthy, young, male volunteers; 2. Protocol G100402, a Phase 1 multiple ascending dose study in 50 healthy, young, male volunteers, and 23 elderly male volunteers with truncal obesity; 3. Protocol G100503, a Phase 1 single dose pharmacokinetic study to assess the effect of a dosage regimen that simulates a sustained release formulation to an immediate release formulation in 18 healthy, young male volunteers and 18 postmenopausal women; 4. Protocol G100506, a Phase 1 single dose pharmacokinetic study to assess the relative bioavailability of a 3 mg hard shell capsule formulation to be used during continued clinical development and to assess the effect of food on the pharmacokinetics of the 3 mg softgel formulation in 27 healthy, young, male volunteers; 5. Protocol 006, a Phase 1 single dose and multiple dose pharmacokinetic study in 24 postmenopausal, Japanese women; 6. Protocol G200501, a Phase 2 study in 60 postmenopausal women and 60 elderly men to assess lean body mass and physical function; 7. Protocol 003, a Phase 1b study in 44 postmenopausal women; 8.

[3] = tested on: ZR-75-1 breast cancer cells; assay: Growth assay, cell count; assay type: cell-based; conditions: 6 days
Experimental: Cells were plated at varying densities in growth medium in 96 well plates. Cells were treated as indicated in the figures and viability measured using sulforhodamine B (SRB) or the number of cells counted using Coulter counter.
Although a few previous reports have shown that MCF-7 cells express AR and respond to AR ligands (Buchanan et al. (2005) Cancer Res 65, 8487-8496), the MCF-7 cell line clone in the study lacks or minimally expresses AR, which is in concordance with other reports (De Amicis et al. (2010) Breast Cancer Res Treat 121, 1-11).

[4] = 9 mg daily, individual patients

SMILES: C[C@](O)(COc1ccc(C#N)cc1)C(=O)Nc1ccc(C#N)c(C(F)(F)F)c1 [Formula IX, (S)—N-(4-Cyano-3-(trifluoromethyl)phenyl)-3-(4-cyanophenoxy)-2-hydroxy-2-methylpropanamide]
- CR or PR ([1]; 9 mg daily): no CR or PR has been observed
- adverse event: A-fib ([1]; 9 mg daily): 1
- adverse event: anxiety/emotional changes ([1]; 9 mg daily): 5
- adverse event: arthralgia ([1]; 9 mg daily): 6
- adverse event: bloating ([1]; 9 mg daily): 2
- adverse event: bruising ([1]; 9 mg daily): 1
- adverse event: cellulitis ([1]; 9 mg daily): 1
- adverse event: chills ([1]; 9 mg daily): 1
- adverse event: constipation ([1]; 9 mg daily): 2
- adverse event: cough ([1]; 9 mg daily): 1
- adverse event: dehydration ([1]; 9 mg daily): 1
- adverse event: diarrhea ([1]; 9 mg daily): 3
- adverse event: dizziness ([1]; 9 mg daily): 2
- adverse event: dysgeusia ([1]; 9 mg daily): 1
- adverse event: dyspepsia ([1]; 9 mg daily): 1
- adverse event: dyspnea ([1]; 9 mg daily): 3
- adverse event: edema ([1]; 9 mg daily): 2
- adverse event: fatigue ([1]; 9 mg daily): 14
- adverse event: fever ([1]; 9 mg daily): 1
- adverse event: flatulence ([1]; 9 mg daily): 1
- adverse event: glaucoma ([1]; 9 mg daily): 1
- adverse event: headache ([1]; 9 mg daily): 4
- adverse event: hot flash night sweats ([1]; 9 mg daily): 7
- adverse event: hypertension ([1]; 9 mg daily): 2
- adverse event: infection ([1]; 9 mg daily): 1
- adverse event: insomnia ([1]; 9 mg daily): 2
- adverse event: myalgia ([1]; 9 mg daily): 5
- adverse event: nail discoloration ([1]; 9 mg daily): 1
- adverse event: nausea ([1]; 9 mg daily): 11
- adverse event: pain ([1]; 9 mg daily): 22
- adverse event: paresthesia ([1]; 9 mg daily): 1
- adverse event: pleural effusion ([1]; 9 mg daily): 1
- adverse event: polyuria ([1]; 9 mg daily): 1
- adverse event: post menopausal bleeding ([1]; 9 mg daily): 3
- adverse event: stiffness ([1]; 9 mg daily): 1
- adverse event: tendonitis ([1]; 9 mg daily): 1
- adverse event: vision changes ([1]; 9 mg daily): 3
- adverse event: vomiting ([1]; 9 mg daily): 2
- adverse event: weight gain ([1]; 9 mg daily): 2
- adverse event: weight loss ([1]; 9 mg daily): 2
- duration of stable disease, one ongoing subject ([1]; 9 mg daily): > 336 days
- liver enzymes (ALT, AST and bilirubin) ([1]; 9 mg daily): returned to baseline
- median duration of SD as best response ([1]; 9 mg daily): 212 days
- median time to PD ([1]; 9 mg daily): 80 days
- patients who reached 6 m that are AR-positive with SD and increased PSA ([1]; 9 mg daily): six
- patients with increased PSA levels ([1]; 9 mg daily): 20 of the 22
- subjects with progressive disease at 6 months or prior ([1]; 9 mg daily): N = 12
- tolerability ([1]; 9 mg daily): well-tolerated
- patients with PD (current disposition) ([1]; 9 mg daily, 22 patients): 15
- patients with SD (current disposition) ([1]; 9 mg daily, 22 patients): 4
- subjects achieving CB as best response ([1]; 9 mg daily, all subjects): 41%
- Current Disposition [1, 4]: D/C (2×) and Deceased (4×)
- Day 84 RECIST [1, 4]: D/C SAE and PD SAE and D/C
- MAX PSA F/U [1, 4]: 2.430 and 0.058 and 0.008 and <0.007 and 0.078 and 0.217 and 9.610 and 0.450 and 3.540 and 0.238 and 8.180 and 0.548 and 0.062 and 0.024 and 13.160 and 0.069 and 0.031 and 0.795 and 0.301 and 0.028 and 0.046 and 0.092
- tolerability ([1]; 9 mg daily, listed as Enobosarm): well tolerated
- tumor regression in one subject with SD ([1]; 9 mg daily, single target lesion): 27%
- 6-month Kaplan-Meier estimate for radiographic progression free survival ([1]; 9 mg oral daily): 43.8%
- clinical benefit rate at 6 months ([1]; 9 mg oral daily): 35.3%
- Progression free probability ([1]; Day 84): 57.5%
- Progression free probability ([1]; Day 168): 50.5%
- time to progression (TTP) ([1]; seven subjects who achieved CB at six months): 10.2 months
- lean body mass [2]: increased
- proliferation of ZR-75-1 cells [3]: significantly reduced dose dependently
